Measurements as given in patent publication US6608082B1, “Treatment of erectile dysfunction using isoquinoline compound melanocortin receptor ligands” (Lion Bioscience AG, priority 1998, dated 2003).

Target: T1, MCR-1 (Homo sapiens, UniProt Q01726)
T1 construct: expressed in transfected cells; host or cells: HEK 293
Test: Melanocortin receptor binding assay, competition with 125I-HP 467, HEK 293 cells expressing hMCR-1
Conditions: for % Disp. of 125I-HP 467 (first of duplicate) / % Disp. of 125I-HP 467 (second of duplicate): 10 μM isoquinoline compound; for % Disp. of 125I-HP 467 (first of duplicate): HEK 293 cells expressing MCR-1, duplicate 1; for % Disp. of 125I-HP 467 (second of duplicate): HEK 293 cells expressing MCR-1, duplicate 2; for IC50: competition with 125I-HP 467, HEK 293 cells expressing MCR-1, read-out: MC-1 IC50
Procedure, shortened: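 Intact-cell competition binding, 2.5 hr at 37 °C, in PBS/10% calf serum/1 mM CaCl2; hMCR-4 cells at 4×10^3 per tube, hMCR-1 cells at 2×10^4 per tube. Filtration on BSA/CaCl2-soaked GF/B, cold 50 mM Tris pH 7.4 washes, scintillation count.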

T1 sequence (Q01726 whole entry): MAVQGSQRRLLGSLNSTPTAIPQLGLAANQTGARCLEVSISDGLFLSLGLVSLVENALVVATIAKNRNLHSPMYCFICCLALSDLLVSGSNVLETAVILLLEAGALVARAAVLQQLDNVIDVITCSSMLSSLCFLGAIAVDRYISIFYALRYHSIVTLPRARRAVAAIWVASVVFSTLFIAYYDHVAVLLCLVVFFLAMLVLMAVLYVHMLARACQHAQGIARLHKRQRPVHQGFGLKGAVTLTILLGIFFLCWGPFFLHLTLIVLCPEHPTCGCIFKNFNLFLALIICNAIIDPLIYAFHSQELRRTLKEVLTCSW

Row | SMILES | % Disp. of 125I-HP 467 (first of duplicate) | % Disp. of 125I-HP 467 (second of duplicate) | IC50
1 | CNC(CN)CCCCN1Cc2ccccc2C(CNC2CCCCC2)C1c1ccc([N+](=O)[O-])cc1 (stereo not drawn) [TRG 2405-251] | 49.4% | 46.9% | –
2 | CNC(CN)CCCCN1Cc2ccccc2C(CNC2CCCCC2)C1c1ccncc1 (stereo not drawn) [TRG 2405-254] | 24.9% | 29.1% | –
3 | CNC(CN)CCCCN1Cc2ccccc2C(CNC2CCCCC2)C1c1ccnc2ccccc12 (stereo not drawn) [TRG 2405-255] | 29.2% | 25.3% | –
4 | CNC(CN)CCCCN1Cc2ccccc2C(CNC2CCCCC2)C1c1ccc(C)s1 (stereo not drawn) [TRG 2405-258] | 80.7% | 81.9% | –
5 | CNC(CN)CCCCN1Cc2ccccc2C(CNC2CCCCC2)C1c1ccc(C)o1 (stereo not drawn) [TRG 2405-259] | 42.5% | 46.1% | –
6 | CNC(CN)CCCCN1Cc2ccccc2C(CNC2CCCCC2)C1c1cccc(C)n1 (stereo not drawn) [TRG 2405-261] | 45.9% | 47.8% | –
7 | CCn1c2ccccc2c2cc(C3C(CNC4CCCCC4)c4ccccc4CN3CCCCC(CN)NC)ccc21 (stereo not drawn) [TRG 2405-263] | 61.6% | 65.3% | –
8 | CNC(CN)CCCCN1Cc2ccccc2C(CNC2CCCCC2)C1c1cc2c3c(c1O)CCCN3CCC2 (stereo not drawn) [TRG 2405-264] | 35% | 39.4% | –
9 | CNC(CN)CCCCN1Cc2ccccc2C(CNC2CCCCC2)C1c1ccc(Br)o1 (stereo not drawn) [TRG 2405-269] | 55.9% | 57.7% | –
10 | CNC(CN)CCCCN1Cc2ccccc2C(CNC2CCCCC2)C1c1nccs1 (stereo not drawn) [TRG 2405-270] | 41.1% | 33.7% | –
11 | CCCCNc1ccc(C2C(CN)c3ccccc3CN2CCCC(CN)NCCc2ccc(Br)cc2)cc1 (stereo not drawn) [TRG 2409-222] | – | – | 120 nM
12 | CCCCNc1ccc(C2C(CN)c3ccccc3CN2CCCC(CN)NCc2ccc(OC)cc2)cc1 (stereo not drawn) [TRG 2409-226] | – | – | 100 nM
13 | CCCCNc1ccc(C2C(CN)c3ccccc3CN2CCCC(CN)NCCc2ccc3ccccc3c2)cc1 (stereo not drawn) [TRG 2409-227] | – | – | 170 nM
14 | CCCCNc1ccc(C2C(CN)c3ccccc3CN2CCCC(CN)NCCN)cc1 (stereo not drawn) [TRG 2409-229] | – | – | 230 nM
15 | CCNC(CN)CCCCN1Cc2ccccc2C(CNCCc2ccccc2)C1c1ccc(-c2ccccc2)cc1 (stereo not drawn) [TRG 2411-2] | – | – | 550 nM
16 | NC[C@H](CCCCN1Cc2ccccc2C(CNCCc2ccccc2)C1c1ccc(-c2ccccc2)cc1)NCCc1ccccc1 (stereo partly drawn) [TRG 2411-3] | – | – | 880 nM
17 | CNCCNC(CN)CCCCN1Cc2ccccc2C(CNCCc2ccccc2)C1c1ccc(-c2ccccc2)cc1 (stereo not drawn) [TRG 2411-4] | – | – | 700 nM
18 | NCCN[C@H](CN)CCCCN1Cc2ccccc2C(CNCCc2ccccc2)C1c1ccc(-c2ccccc2)cc1 (stereo partly drawn) [TRG 2411-5] | – | – | 790 nM
19 | CNC(C)CNC(CN)CCCCN1Cc2ccccc2C(CNCCc2ccccc2)C1c1ccc(-c2ccccc2)cc1 (stereo not drawn) [TRG 2411-6] | – | – | 470 nM
20 | NCC(CCCCN1Cc2ccccc2C(CNCCc2ccccc2)C1c1ccc(-c2ccccc2)cc1)NCCO (stereo not drawn) [TRG 2411-7] | – | – | 630 nM
21 | CNC(CNC(CN)CCCCN1Cc2ccccc2C(CNCCc2ccccc2)C1c1ccc(-c2ccccc2)cc1)Cc1ccccc1 (stereo not drawn) [TRG 2411-8] | – | – | 760 nM
22 | COCCNC(CN)CCCCN1Cc2ccccc2C(CNCCc2ccccc2)C1c1ccc(-c2ccccc2)cc1 (stereo not drawn) [TRG 2411-10] | – | – | 1100 nM
23 | NCC(CCCCN1Cc2ccccc2C(CNCCc2ccccc2)C1c1ccc(-c2ccccc2)cc1)NCC1CCCCC1 (stereo not drawn) [TRG 2411-12] | – | – | 730 nM
